Results: patent US20240398919A1, “EPITOPE PEPTIDE FOR TUMOR-ASSOCIATED ANTIGEN AND USE THEREOF” (SHENZHEN INSTITUTES OF ADVANCEDTECHNOLOGY CHINESE ACADEMY …, priority 2023, published 2024)
“Also recorded” adds a separate entry of the source.

Columns and labels:
[1] = system: splenocytes (IFN-γ secreting T cells); assay: IFN-γ ELISPOT of splenocytes co-cultured with peptides; assay type: cell-based; details: splenocytes of immunized mice, 5×10^5/well, co-cultured with peptide (10 μg) for 20 h; vs DPBS and CpG groups
Description: Isolate splenocytes: Spleens were gently mashed and filtered through a 70-μm strainer (Falcon, Corning, Germany), and then collected into a 15 mL centrifuge tube. After adding 1 mL erythrocyte lysis buffer and washing in PBS, cells were collected for ELISPOT assay.
Enzyme-linked immunospot assay (ELISPOT): splenocytes were isolated according to the above method and were co-cultured with different polypeptides (10 μg) at 5×10^5/well for 20 h. The size and number of IFN-γ positive spots were calculated by using Adobe Photoshop CS6 software.
FIGS. 5A and 5B is a graph showing the detection results of the ability of specific T cells to secrete IFN-γ induced by tumor antigen epitope peptides. In FIGS. 5A and 5B, the experimental mice were euthanized, the monocytes derived from spleens were co-cultured with different peptides for 20 h to detect the secretion of IFN-γ by ELISPOT assay according to the manufacturer's instructions. Spleens were gently mashed and monocytes were isolated using a lymphocyte separation medium. The monocytes were incubated into wells of an ELISPOT plate and stimulated synchronously. The cells were incubated in an incubator at 37° C. and cytokines were captured. The number of T cells specifically secreting IFN-γ in splenocytes of the immunized mice can be detected by detecting the formation of spots.

[2] = system: MB49 bladder cancer cells; assay: Tumor growth inhibition by peptide vaccines in the mouse bladder cancer treatment model; assay type: in vivo, C57BL/6 mice; details: 3×10^5 MB49 cells s.c. on Day 0; peptide 100 μg/100 μL + CpG ODN 1826 10 μM s.c. on day 3, 6, 9, 12, 15, 18, 21; tumor size every 3 days; vs DPBS and CpG groups
Description: Cancer cells and animal model: MB49 bladder cancer cells were grown in DMEM containing 10% FBS (Fetal Bovine Serum, Gibco, 10099141C) and 1% PS (Penicillin-Streptomycin-Glutamine, Gibco, 10378016). 3×10^5 MB49 cancer cells were resuspended in 100 μL of DPBS and injected subcutaneously into a lower back of male C57BL/6 mice (6-8 weeks old), respectively to construct a mouse bladder cancer treatment model. After the initial implantation of tumors, the mice developed tumors around 5 days, and after tumor formation, the tumor growth was monitored every other 3 days, and a long diameter (a) and a short diameter (b) of the tumor were measured with a vernier caliper, and the size of each solid tumor was calculated according to the solid tumor size V=axbxb/2, and a tumor growth curve was plotted. […]
FIG. 2 is a graph showing the detection results of a tumor growth inhibition assay of antigenic epitope peptides derived from various genes tested. […] The tumor size in the mice was detected every 3 days.
FIG. 3 is a graph showing the detection results of testing the inhibitory effect of mixed peptide vaccines on tumor growth after vaccines are prepared by mixing the effective antigenic epitope peptides. […] The tumor size in the mice was detected every 3 days. […]

| Sequence | Specific T-cell response (IFN-γ secretion, ELISPOT) [1] | Inhibition of tumor growth (tumor size) [2] |
| --- | --- | --- |
| VHLAKSLPL [CENPM] | can strongly stimulate the immune response of specific T cells; also recorded: significant T-cell responses; also recorded: can induce T-cell responses | partial tumor growth inhibitory effect; also recorded: did not show significant tumor inhibition; also recorded: does not show strong anti-tumor effects |
| FYMMPVNSEVM [NUF-2] | can strongly stimulate the immune response of specific T cells; also recorded: significant T-cell responses; also recorded: strongest T-cell response | can effectively inhibit the growth of bladder cancer; also recorded: significantly inhibited the growth of bladder cancer; also recorded: most significant tumor-inhibiting effects |
